In patent US12655413B2, “Fragmented GRS polypeptide and variant thereof, and use thereof” (CUREBIO THERAPEUTICS, priority 2018, dated 2026):
Residues, ends and D or L forms follow the SMILES beside them.

Assays:
[1] = test system: SN12C (CDH6 positive renal cancer cell); test: Comparison of in vitro cancer cell apoptotic activity among the polypeptides (FIG. 2); type: cell-based; conditions: 1 μg or 2 μg of polypeptide
Method: The polypeptide fragments were assayed for cancer cell apoptotic activity. Concrete experiment procedures were as follows: H460, HCT116, MCF7, HeLa, SN12C or RENCA cells were each seeded at a density 5,000 cells/mL into 96-well plates (Corning, New York, USA) and incubated for 24 hours with 100 nM of each of the polypeptide fragments and the full-length GRS protein. Then, each sample was treated for 2 hours with 10 μl of CCK8 reagent (Dojindo Molecular Technologies Inc. Kumamoto, Japan) before absorbance was read at 570 nm on a microplate reader (TECAN, Mannedorf, Swiss).
Comparison was made of cancer cell apoptotic activity among the polypeptide constructs of Examples 1-1 and 1-2. Each polypeptide was used in an amount of 1 μg or 2 μg, and the assay was performed in the same manner as in Example 1-1.

[2] = test system: SN12C (CDH6 positive) cells; test: In vivo anticancer activity, intravenous injection, SN12C xenograft; design: species or system BALB/c nude mice; conditions: 5 MPK intravenously on day 5 and 7; monitored 21 days; FIGS. 7a to 7c
Text: FIG. 7a is an image of tumors excised from experimental animals in each test group sacrificed on day 21 after xenotransplantation of tumor cells, showing results of evaluating the ability of GRS, GRS-DP, and representative fragments derived therefrom (GRS-DP-B, or GRS-DP-A cyclic) to induce tumor regression in vivo by intravenous injection. Briefly, SN12C (CDH6 positive) cells were subcutaneously injected into BALB/c nude mice and then grown for 5 days to an average tumor size of 100 mm^3. On day 5 and 7, PBS or test materials were each intravenously injected at a dose of 5 MPK (n=5 animals/group). Tumor volumes were calculated according to “maximum diameter×minimum diameter^2×0.52”.
Experimental procedures of an assay for in vivo anticancer activity are schematically represented in FIG. 6a. Briefly, 1×10^7 SN12C (CDH6 positive) cells were subcutaneously injected to the right flank of female BALB/c 8 weeks old (Dooyeol Biotech Co. Ltd, Seocho-gu, Seoul) and then grown for 5 days to an average tumor size of 100 mm^3. On day 5 and 7, PBS (control) or test materials (including a control) were each intravenously injected at a dose of 5 MPK (n=5 animals/group). After monitoring the tumors for 21 days, the mice were sacrificed on day 21 and the tumors were excised. Tumor volumes were calculated according to “maximum diameter×minimum diameter^2×0.52”.

[3] = test system: SN12C (CDH6 positive) cells; test: In vivo anticancer activity, intra-tumor injection, SN12C xenograft; design: species or system BALB/c nude mice; conditions: 20 μg into tumors on day 5 and 7; monitored 21 days; FIGS. 6b to 6d
Method: FIG. 6a is an experimental scheme for evaluating the ability of GRS, GRS-DP, and representative fragments derived therefrom (GRS-DP-B, or GRS-DP-A cyclic) to induce tumor regression in vivo by intra-tumor injection. Briefly, SN12C (CDH6 positive) cells were subcutaneously injected into BALB/c nude mice and then grown for 5 days to an average tumor size of 100 mm^3. On day 5 and 7, PBS or test materials were each injected at a dose of 20 μg into tumors (n=5 animals/group). Tumor volumes were calculated according to “maximum diameter×minimum diameter^2×0.52”.
Experimental procedures of an assay for in vivo anticancer activity are schematically represented in FIG. 6a. Briefly, 1×10^7 SN12C (CDH6 positive) cells were subcutaneously injected to the right flank of female BALB/c 8 weeks old (Dooyeol Biotech Co. Ltd, Seocho-gu, Seoul) and then grown for 5 days to an average tumor size of 100 mm^3. On day 5 and 7, PBS (control) or test materials (including a control) were each injected at a dose of 20 μg into tumors (n=5 animals/group). After monitoring the tumors for 21 days, the mice were sacrificed on day 21 and the tumors were excised. Tumor volumes were calculated according to “maximum diameter×minimum diameter^2×0.52”.

[4] = test system: B16F10 cells; test: In vivo tumor targeting of Alexa fluor 488-labeled polypeptides, intravenous injection; design: species or system C57BL/6 mice; conditions: 1 mg/kg intravenously, tumors excised after 24 hours; compared to full-length GRS protein and GRS-DP; FIGS. 8a, 8b
Text: FIG. 8a is an image of tumors excised from test groups, showing comparison of abilities of GRS, GRS-DP, and representative fragments derived therefrom (GRS-DP-B or GRS-DP-A cyclic) to specifically target cancer cells in terms of fluorescence labeling intensity. In the experiment, B16F10 cells were subcutaneously injected into C57BL/6 mice and then grown for 14 days. On day 14, PBS or fluorescence-labeled test materials were each intravenously injected at a dose of 1 MPK, and tumors were excised 24 hours after injection.
Thus, the ability of GRS-DP-B to target tumors in practice was evaluated when it was administered in a systemic manner. For this, GRS-DP-B, GRS-DP-A cyclic, GRS-DP, and full-length GRS protein were assayed for tumor targeting ability in vivo. Briefly, B16F10 cells (5×10^6 cells) were subcutaneously injected into the right flank of each of C57BL/6 mice 8 weeks old. On day 14, full-length GRS and the polypeptides of the present invention, each labeled with Alexa fluor 488, were intravenously injected at a dose of 1 mg/kg mouse weight, and the tumors were excised after 24 hours. Fluorescent signals of tumors were measured using IVIS Lumina Series III (PerkinElmer, Massachusetts, USA) to analyze regions of interest (ROI)

[5] = target: T1, cadherin6 (CDH6)-fc fusion protein (Homo sapiens, UniProt P55285); test: Affinity for CDH6 by surface plasmon resonance (SPR); type: binding; conditions: CDH6 immobilized on carboxymethyl dextran chip
T1 construct: Fc
Method: Comparison was made of the affinity of the peptides of the present invention for CDH6. The binding of GRS and GRS-derived peptides to cadherin6 (CDH6)-fc fusion protein was analyzed by surface plasmon resonance (SPR) using SR7500DC, Reichert Analytical Instrument (Depew NY). CDH6 was immobilized on a [CMDH chip]carboxymethyl dextran sensor chip via a free carboxyl group on the surface thereof, followed by injecting 0.1M 1-ethyl-3-(3-dimethylaminopropyl) carbodiimide hydrochloride and 0.05M N-hydroxysuccinimide at a flow speed of 5 μL/min to give an activated succinimide ester-modified surface. Various concentrations of GRS and GRS-derived peptides were injected at a flow speed of 30 μL/min into phosphate-based saline, after which a mobile-phase buffer was injected at the same flow speed to determine a dissociation rate. Data was analyzed using Software Scrubber 2.0 (Biological Software, Australia).

[6] = test system: pERK in SN12C (CDH6 positive) cells or RENCA (CDH6 negative) cells; test: Dephosphorylation of pERK by western blotting; type: cell-based; conditions: 100 nM or 200 nM, 1 hour; SN12C vs RENCA; FIGS. 5b, 5c
Method: To examine whether the polypeptides of the present invention dephosphorylates pERK by binding to CDH6 or not, SN12C (CDH6 positive) cells or RENCA (CDH6 negative) cells were treated with the polypeptides of the present invention (typically, 100 nM or 200 nM of GRS-DP) and dephosphorylation of pERK was analyzed. In this regard, full-length GRS 100 nM was used as a positive control. In brief, the cells were […] for 1 hour with full-length GRS or GRS-DP, washed twice with chilled PBS, and lysed in a lysis buffer (150 mM NaCl, 2 mM EDTA, 1% Triton X-100, 1% sodium deoxycholate, 10 mM NaF, 1 mM orthovandadate, 10% glycerol, protease cocktail). Thirty micrograms of each protein were run on SDS/PAGE, followed by western blotting with an ERK antibody purchased from Cell Signaling Technology (Danvers, MA, USA) and an anti-cadherin-6 (K-cadherin) antibody purchased from Abcam (Cambridge, UK).

[7] = test system: CDH6+/pERK+ cells (H460, HeLa, SN12C) or negative cells (RENCA, MCF7); test: CDH6-dependency: cell viability of CDH6/pERK positive or negative cells; type: cell-based; conditions: GRS-DP 100 nM (FIG. 5a legend: 200 nM); CDH6 positive vs negative cells

T1 sequence (P55285 with tags, fused parts or gaps limits assumed): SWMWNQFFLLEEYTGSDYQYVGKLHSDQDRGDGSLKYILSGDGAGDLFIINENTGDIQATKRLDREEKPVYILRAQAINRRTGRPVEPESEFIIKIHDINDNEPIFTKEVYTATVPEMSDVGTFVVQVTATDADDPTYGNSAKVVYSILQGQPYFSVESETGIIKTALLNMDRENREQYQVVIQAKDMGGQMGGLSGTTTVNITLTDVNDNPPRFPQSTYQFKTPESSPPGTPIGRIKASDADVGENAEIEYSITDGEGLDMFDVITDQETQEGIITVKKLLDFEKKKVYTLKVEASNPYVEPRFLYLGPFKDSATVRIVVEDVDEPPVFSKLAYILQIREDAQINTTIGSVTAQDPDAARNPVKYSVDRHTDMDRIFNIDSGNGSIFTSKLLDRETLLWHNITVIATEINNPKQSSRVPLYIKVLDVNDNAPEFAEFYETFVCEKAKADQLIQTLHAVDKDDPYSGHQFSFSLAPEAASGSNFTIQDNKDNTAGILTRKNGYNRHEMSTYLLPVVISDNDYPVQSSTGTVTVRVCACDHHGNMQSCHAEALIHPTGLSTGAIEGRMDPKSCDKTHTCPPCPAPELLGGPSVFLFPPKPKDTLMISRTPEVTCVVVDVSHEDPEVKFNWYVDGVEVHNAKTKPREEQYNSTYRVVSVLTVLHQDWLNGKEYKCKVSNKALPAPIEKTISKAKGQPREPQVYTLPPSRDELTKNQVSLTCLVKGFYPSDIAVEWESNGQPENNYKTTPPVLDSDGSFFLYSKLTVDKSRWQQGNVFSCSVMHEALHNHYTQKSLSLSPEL

| Kd [5] [nM] | Compound | cancer cell apoptotic effect [1] | sizes (volumes) and weights of tumors [2] | sizes (volumes) and weights of tumors [3] | tumor-specific target ability (fluorescence ROI of excised tumors) [4] | dephosphorylation of pERK [6] | cell viability [7] |
| --- | --- | --- | --- | --- | --- | --- | --- |
|  | CSCC[C@H](N)C(=O)N[C@@H](Cc1ccc(O)cc1)C(=O)N[C@H](C(=O)N[C@H](C(=O)N[C@@H](Cc1ccccc1)C(=O)N[C@@H](CCC(=O)O)C(=O)N[C@@H](Cc1c[nH]cn1)C(=O)N[C@H](C(=O)N[C@@H](Cc1ccccc1)C(=O)N[C@@H](Cc1c[nH]cn1)C(=O)N[C@H](C(=O)N[C@@H](CCCNC(=N)N)C(=O)N[C@@H](CCC(=O)O)C(=O)NCC(=O)N[C@@H](CC(=O)O)C(=O)N[C@@H](CCC(=O)O)C(=O)N[C@@H](CCC(N)=O)C(=O)N[C@@H](CCCNC(=N)N)C(=O)N[C@H](C(=O)N[C@@H](Cc1ccccc1)C(=O)N[C@@H](Cc1ccccc1)C(=O)N[C@@H](CO)C(=O)N[C@@H](Cc1ccccc1)C(=O)N1CCC[C@H]1C(=O)N[C@@H](C)C(=O)O)[C@@H](C)O)C(C)C)[C@@H](C)O)C(C)C)[C@@H](C)O [GRS-DP-A linear] (H-MYTVFEHTFHVREGDEQRTFFSFPA-OH; N-terminus and C-terminus assumed) | remarkably |  |  |  |  |  |
|  | GRS-DP-B: truncated GRS fragment, positions 531-538 on SEQ ID NO: 1, 8 aa (SEQ ID NO: 2) (MYTVFEHT; GRS-DP-B(GRS 531-538)) | remarkably | most remarkably reduced | most remarkably reduced | remarkably high tumor-specific target ability |  |  |
|  | GRS-DP-C: truncated GRS fragment, positions 538-552 on SEQ ID NO: 1, 15 aa (SEQ ID NO: 12) (TFHVREGDEQRTFFS; GRS-DP-C (GRS 538-552)) | not detected |  |  |  |  |  |
| 83.9 | MYTVFEHTFHVREGDEQRTFFSFPAVVAPFKCSVLPLSQNQEFMPFVKELSEALTRHGVSHKVDDSSGSI [GRS-DP] | remarkably |  |  |  | inducing the CDH6-dependent dephosphorylation of pERK | reduced the cell viability of CDH6-positive cells only |
